The results in this text go back to US8093281B2, “Indazoles as glucocorticoid receptor ligands” (Glaxo Group Limited, priority 2005, dated 2012).

One assay deals with NFkB activity. The experiment in a line: Glucocorticoid mediated transrepression of NFkB activity (A549 cells, ELAM promoter alkaline phosphatase reporter, TNFα stimulated). Conditions: Homo sapiens, A549, 16 h, Human A549 lung epithelial cells, 3 ng/ml human recombinant TNFα, read-out: pEC50, transrepression of NFkB activity (converted). Format: cell-based. The text has this:
Human A549 lung epithelial cells were engineered to contain a secreted placental alkaline phosphatase gene under the control of the distal region of the NFkB dependent ELAM promoter as previously described in Ray, K. P., Farrow, S., Daly, M., Talabot, F. and Searle, N. “Induction of the E-selectin promoter by interleukin 1 and tumour necrosis factor alpha, and inhibition by glucocorticoids” Biochemical Journal (1997) 328: 707-15.
Compounds were solvated and diluted in DMSO, and transferred directly into assay plates such that the final concentration of DMSO was 0.7%. Following the addition of cells (40K per well), plates were incubated for 1 hr prior to the addition of 3 ng/ml human recombinant TNFα. Following continued incubation for 16 hr, alkaline phosphatase activity was determined by measuring the change in optical density at 405 nm with time following the addition of 0.7 volumes of assay buffer (1 mg/ml p-nitrophenylphosphate dissolved in 1M diethanolamine, 0.28M NaCl, 0.5 mM MgCl2). Dose response curves were constructed from which EC50 values were estimated.

A further assay deals with T1, Progesterone Receptor (Homo sapiens, UniProt P06401).
T1 construct: expressed in transfected cells; host or cells: CV-1 cells transduced with PRb-BacMam and MMTV-BacMam (luciferase reporter)
T1 sequence (P06401 1-933): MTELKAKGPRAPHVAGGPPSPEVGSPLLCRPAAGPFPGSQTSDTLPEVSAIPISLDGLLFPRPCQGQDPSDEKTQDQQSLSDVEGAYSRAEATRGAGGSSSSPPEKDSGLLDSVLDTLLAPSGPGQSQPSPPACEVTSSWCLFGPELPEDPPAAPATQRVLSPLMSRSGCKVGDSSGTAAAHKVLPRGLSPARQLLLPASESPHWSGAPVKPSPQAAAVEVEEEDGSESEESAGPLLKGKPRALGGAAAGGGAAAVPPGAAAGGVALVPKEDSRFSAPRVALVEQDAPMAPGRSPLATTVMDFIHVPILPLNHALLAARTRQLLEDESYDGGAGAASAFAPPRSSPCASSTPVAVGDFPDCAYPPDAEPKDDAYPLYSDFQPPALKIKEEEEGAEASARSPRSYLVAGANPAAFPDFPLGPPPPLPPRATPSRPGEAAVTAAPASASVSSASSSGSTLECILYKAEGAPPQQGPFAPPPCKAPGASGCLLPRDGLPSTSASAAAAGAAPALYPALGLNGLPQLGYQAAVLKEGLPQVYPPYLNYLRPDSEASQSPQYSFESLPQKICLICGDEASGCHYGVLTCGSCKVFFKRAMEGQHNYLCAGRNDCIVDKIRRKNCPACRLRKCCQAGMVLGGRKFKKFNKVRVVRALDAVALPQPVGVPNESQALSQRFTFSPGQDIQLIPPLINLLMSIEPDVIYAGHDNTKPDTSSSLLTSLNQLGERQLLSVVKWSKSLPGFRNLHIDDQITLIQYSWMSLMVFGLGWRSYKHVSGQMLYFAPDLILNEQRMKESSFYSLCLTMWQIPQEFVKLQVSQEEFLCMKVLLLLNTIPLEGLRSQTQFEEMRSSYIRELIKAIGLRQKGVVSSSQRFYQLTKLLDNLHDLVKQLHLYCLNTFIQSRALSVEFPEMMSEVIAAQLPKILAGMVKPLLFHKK
The assay can be described thus: Assay for progesterone receptor activity (CV-1 cells transduced with PRb-BacMam and MMTV-BacMam). The class given is cell-based. Conditions: 24 h, read-out: pEC50, progesterone receptor activity (converted). As for the experimental part: A T225 flask of CV-1 cells at a density of 80% confluency was washed with PBS, detached from the flask using 0.25% trypsin and counted using a Sysmex KX-21N. Cells were diluted in DMEM containing 10% Hyclone, 2 mM […] and 1% Pen/Strep at 140 cells/μl and transduced with 10% PRb-BacMam and 10% MMTV-BacMam. […] of suspension cells were dispensed to each well of white Nunc 384-well plates, containing compounds at the required concentration. After 24 h 10 μl of Steady Glo were added to each well of the plates. Plates were incubated in the dark for 10 min before reading them on a Viewlux reader. Dose response curves were constructed from which pEC50 values were estimated.

`COc1ccc(-n2ncc3c(NCC(O)(CC(C)(C)c4cc(F)ccc4OC)C(F)(F)F)cccc32)cc1` (racemic) [Example 3, 1,1,1-Trifluoro-4-[5-fluoro-2-(methyloxy)phenyl-4-methyl-2-({1-[4-(methyloxy)phenyl]-1H-indazol-4-yl}amino)methyl]-2-pentanol]: the EC50 in the assay on NFkB activity is < 0.00316 µM; at Progesterone Receptor it was > 10 µM.
As to `COc1ccc(F)cc1C(C)(C)CC(O)(CNc1cccc2c1cnn2-c1ccncc1)C(F)(F)F` (racemic) [Example 5, 1,1,1-Trifluoro-4-[5-fluoro-2-(methyloxy)phenyl]-4-methyl-2-({[1-(4-pyridinyl)-1H-indazol-4-yl]amino}methyl)-2-pentanol], the EC50 with NFkB activity was < 0.00316 µM; on Progesterone Receptor it was > 10 µM.
Regarding `COc1ccc(F)cc1C(C)(C)CC(O)(CNc1cccc2c1cnn2-c1ccccc1)C(F)(F)F` (racemic) [Example 7, 1,1,1-Trifluoro-4-[5-fluoro-2-(methyloxy)phenyl]-4-methyl-2-{[(1-phenyl-1H-indazol-4-yl)amino]methyl}-2-pentanol], the EC50 was < 0.00316 µM in the assay on NFkB activity and > 10 µM at Progesterone Receptor.
Take `COc1ccc(F)cc1C(C)(C)CC(O)(CNc1cccc2c1cnn2-c1ccc(F)cc1)C(F)(F)F` (single isomer, unassigned) [Example 2-A, 1,1,1-Trifluoro-4-[5-fluoro-2-(methyloxy)phenyl]-2-({[1-(4-fluorophenyl)-1H-indazol-4-yl]amino}methyl)-4-methyl-2-pentanol]: on Progesterone Receptor, the EC50 is > 10 µM.
For the compound `COc1ccc(F)cc1C(C)(C)CC(O)(CNc1cccc2c1cnn2-c1ccc(F)cc1F)C(F)(F)F` (single isomer, unassigned) [Example 4-A, 2-({[1-(2,4-Difluorophenyl)-1H-indazol-4-yl]amino}methyl)-1,1′-trifluoro-4-[5-fluoro-2-(methyloxy)phenyl]-4-methyl-2-pentanol], the EC50 on Progesterone Receptor was > 10 µM.
`CCOC(=O)c1cccc(-n2ncc3c(NCC(O)(CC(C)(C)c4cc(F)ccc4OC)C(F)(F)F)cccc32)c1` (single isomer, unassigned) [Example 6-A, Ethyl 3-(4-{[4-[5-fluoro-2-(methyloxy)phenyl]-2-hydroxy-4-methyl-2-(trifluoromethyl)pentyl]amino}-1H-indazol-1-yl)benzoate]: the EC50 on Progesterone Receptor was > 10 µM.
Regarding `COc1ccc(F)cc1C(C)(C)CC(O)(CNc1cc(C)cc2c1cnn2-c1ccccc1)C(F)(F)F` (single isomer, unassigned) [Example 15-A, 1,1,1-Trifluoro-4-[5-fluoro-2-(methyloxy)phenyl]-4-methyl-2-{[(6-methyl-1-phenyl-1H-indazol-4-yl)amino]methyl}-2-pentanol], the EC50 on Progesterone Receptor is > 10 µM.
Regarding `COc1ccc(F)cc1C(C)(C)CC(O)(CNc1cc(C)cc2c1cnn2-c1ccc(F)cc1F)C(F)(F)F` (single isomer, unassigned) [Example 16-B, 2-({[1-(2,4-Difluorophenyl)-6-methyl-1H-indazol-4-yl]amino}methyl)-1,1,1-trifluoro-4-[5-fluoro-2-(methyloxy)phenyl]-4-methyl-2-pentanol], on Progesterone Receptor, the EC50 was > 10 µM.
On the same count and under the same terms, the same measure for `Cc1cc(NCC(O)(CC(C)(C)c2cc(F)ccc2O)C(F)(F)F)c2cnn(-c3cccc(O)c3)c2c1` (single isomer, unassigned) [Example 24-A, 4-Fluoro-2-[4,4,4-trifluoro-3-hydroxy-3-({[1-(3-hydroxyphenyl)-6-methyl-1H-indazol-4-yl]amino}methyl)-1,1-dimethylbutyl]phenol]: > 10 µM.
Still for that read-out and setting: the same measure for `COc1ccc(F)cc1C(C)(C)CC(O)(CNc1cc(C)cc2c1cnn2-c1ccccc1F)C(F)(F)F` (single isomer, unassigned) [Example 25-B, 1,1,1-Trifluoro-4-[5-fluoro-2-(methyloxy)phenyl]-2-({[1-(2-fluorophenyl)-6-methyl-1H-indazol-4-yl]amino}methyl)-4-methyl-2-pentanol]: > 10 µM; for `COc1ccc(F)cc1C(C)(C)CC(O)(CNc1cc(C)cc2c1cnn2-c1ccc(F)cc1)C(F)(F)F` (single isomer, unassigned) [Example 26-A, 1,1,1-Trifluoro-4-[5-fluoro-2-(methyloxy)phenyl]-2-({[1-(4-fluorophenyl)-6-methyl-1H-indazol-4-yl]amino}methyl)-4-methyl-2-pentanol]: > 10 µM.
